Data reported in ChEMBL document CHEMBL1201862, “PubChem BioAssay data set” (2004).
Calls of active or inactive are those of the source.

Columns and labels:
[1] = Luminescent dose response cell-based high throughput screening assay for inhibitors of the Janus kinase 2 mutant JAK2V617F. [Related pubchem assays: 1446 (Primary screen.), 1521 (Confirmation assay.), 1486 (Counter screen.)]; assay type: functional
[2] = NIH-3T3 fibroblast cytotoxicity, dose response, cytotoxicity control, cell-based, fluorescence, Alamar Blue, secondary assay (AID 2327); assay type: functional;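 also: NIH-3T3 mouse fibroblasts cultured with fluconazole at 8 µg/mL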
[3] = target: Sphingosine 1-phosphate receptor 2 (Homo sapiens, UniProt O95136); assay: Dose Response Cell Based Assay for Antagonists of the S1P2 Receptor. [Related pubchem assays: 856, 736 ]; assay type: functional
Chain of Sphingosine 1-phosphate receptor 2 (O95136 whole entry): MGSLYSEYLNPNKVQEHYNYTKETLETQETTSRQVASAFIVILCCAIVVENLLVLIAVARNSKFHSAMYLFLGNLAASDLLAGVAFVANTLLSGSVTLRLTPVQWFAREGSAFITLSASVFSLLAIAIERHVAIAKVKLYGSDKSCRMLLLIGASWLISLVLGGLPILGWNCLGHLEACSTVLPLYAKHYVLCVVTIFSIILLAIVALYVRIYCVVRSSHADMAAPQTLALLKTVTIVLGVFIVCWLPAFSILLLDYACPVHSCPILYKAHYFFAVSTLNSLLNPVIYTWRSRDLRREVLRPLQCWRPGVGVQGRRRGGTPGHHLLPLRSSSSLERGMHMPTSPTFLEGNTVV

[4] = system: HeLa; assay: Cytotoxicity counterscreen assay for transcriptional activators of heat shock protein 70 (Hsp70). [Related pubchem assays: 1203, 1252 ]; assay type: functional; details: Homo sapiens;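 also: cells exposed to compound for 16 hours before readout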
[5] = target: T1, Heat shock factor protein 1 (Mus musculus, UniProt P38532); assay: decrease of HSF1-responsive luciferase luminescence – cell-based, NIH3T3, dose retest, confirmation (AID 2382); assay type: functional;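 also: NIH3T3 fibroblasts with HSF1-driven luciferase reporter stressed by proteasome inhibitor MG132; luminescence from HSF1-driven luciferase expression after 8 hours of MG132 stress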
T1 sequence (P38532 whole entry): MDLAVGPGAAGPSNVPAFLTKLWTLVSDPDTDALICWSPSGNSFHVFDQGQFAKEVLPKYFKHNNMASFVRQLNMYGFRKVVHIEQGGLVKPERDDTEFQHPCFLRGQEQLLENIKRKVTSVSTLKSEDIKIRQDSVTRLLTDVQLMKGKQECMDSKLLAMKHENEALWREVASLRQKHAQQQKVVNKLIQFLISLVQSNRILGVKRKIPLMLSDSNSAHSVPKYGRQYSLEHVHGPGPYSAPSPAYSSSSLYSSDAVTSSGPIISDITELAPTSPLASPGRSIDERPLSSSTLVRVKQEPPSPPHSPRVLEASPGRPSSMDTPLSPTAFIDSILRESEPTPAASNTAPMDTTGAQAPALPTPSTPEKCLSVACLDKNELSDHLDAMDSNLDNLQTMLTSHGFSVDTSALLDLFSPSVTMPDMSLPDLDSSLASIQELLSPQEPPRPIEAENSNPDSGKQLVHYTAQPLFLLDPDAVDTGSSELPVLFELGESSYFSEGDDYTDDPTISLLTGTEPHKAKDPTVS

[6] = fluconazole-exposed Candida albicans growth modulators – fluorescence, retest, confirmation (AID 2467); assay type: functional, cell-based
[7] = Trypanosoma cruzi growth suppression in host cells – NIH3T3 host cells, beta-gal luminescence, confirmation (AID 2044); assay type: functional, cell-based;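 also: intracellular parasites grown in NIH/3T3 mouse fibroblasts as host cells; luminescent beta-galactosidase reporter signal from transgenic T. cruzi replicating inside host cells; inhibitors lower the luminescence signal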
[8] = NIH3T3 cell viability loss – ATP luminescence, mouse fibroblasts, counter-screen, dose response (AID 2010); assay type: functional, cell-based;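 also: cells exposed to compound for about 90 hours before reading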
[9] = Intein inhibitors as potential Tuberculosis drugs, a cytotoxicity screen. [Related pubchem assays (depositor defined):AID2221, AID2223, AID434968, AID435010, AID449749, AID449750, AID489010]; assay type: functional
[10] = system: CHO; assay: CHO cell viability loss, potency – luminescence, cytotoxicity control for TLR9-MyD88 binding inhibitor project, dose response (AID 588339); assay type: functional, cell-based, hamster; details: Cricetulus griseus;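 also: CHO cells stably coexpressing TLR9 and MyD88 fusions from primary screen; compound exposure lasted 48 hours before viability readout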
[11] = target: T2, Replicative DNA helicase DnaB (Mycobacterium tuberculosis, UniProt P9WMR3); assay: DnaB intein splicing inhibitors, dose response, biochemical, cell-free fluorescence (AID 449749); assay type: functional
T2 sequence (P9WMR3 whole entry): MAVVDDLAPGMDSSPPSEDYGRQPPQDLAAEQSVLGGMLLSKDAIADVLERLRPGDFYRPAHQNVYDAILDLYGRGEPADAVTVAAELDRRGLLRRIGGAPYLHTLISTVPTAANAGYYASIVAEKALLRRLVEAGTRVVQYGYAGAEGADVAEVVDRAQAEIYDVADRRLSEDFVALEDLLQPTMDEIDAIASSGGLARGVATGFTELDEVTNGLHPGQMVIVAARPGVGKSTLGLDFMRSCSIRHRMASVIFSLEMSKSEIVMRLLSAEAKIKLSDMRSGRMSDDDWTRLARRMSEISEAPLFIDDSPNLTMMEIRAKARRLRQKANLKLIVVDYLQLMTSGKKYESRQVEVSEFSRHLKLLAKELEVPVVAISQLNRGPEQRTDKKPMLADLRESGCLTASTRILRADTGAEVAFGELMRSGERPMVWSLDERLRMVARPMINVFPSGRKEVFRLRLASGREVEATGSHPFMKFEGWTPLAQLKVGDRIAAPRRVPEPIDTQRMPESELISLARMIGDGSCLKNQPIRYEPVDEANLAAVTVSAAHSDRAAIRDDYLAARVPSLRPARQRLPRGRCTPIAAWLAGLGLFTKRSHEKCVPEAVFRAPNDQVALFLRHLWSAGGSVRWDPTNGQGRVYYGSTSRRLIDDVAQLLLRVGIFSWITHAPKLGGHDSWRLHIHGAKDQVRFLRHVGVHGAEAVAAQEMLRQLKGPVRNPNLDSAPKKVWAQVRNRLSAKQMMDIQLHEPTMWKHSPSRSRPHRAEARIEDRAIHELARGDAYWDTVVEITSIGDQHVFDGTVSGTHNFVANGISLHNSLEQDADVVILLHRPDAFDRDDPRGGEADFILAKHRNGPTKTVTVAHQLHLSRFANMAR

[12] = target: T3, Protein RecA (Mycobacterium tuberculosis, UniProt P9WHJ3); assay: Fluorescence Cell-Free Homogeneous Dose Retest to Identify Inhibitors of RecA-Intein Splicing Activity. [Related pubchem assays (depositor defined):AID2097, AID2223, AID489010, AID492950]; assay type: functional
T3 sequence (P9WHJ3 whole entry): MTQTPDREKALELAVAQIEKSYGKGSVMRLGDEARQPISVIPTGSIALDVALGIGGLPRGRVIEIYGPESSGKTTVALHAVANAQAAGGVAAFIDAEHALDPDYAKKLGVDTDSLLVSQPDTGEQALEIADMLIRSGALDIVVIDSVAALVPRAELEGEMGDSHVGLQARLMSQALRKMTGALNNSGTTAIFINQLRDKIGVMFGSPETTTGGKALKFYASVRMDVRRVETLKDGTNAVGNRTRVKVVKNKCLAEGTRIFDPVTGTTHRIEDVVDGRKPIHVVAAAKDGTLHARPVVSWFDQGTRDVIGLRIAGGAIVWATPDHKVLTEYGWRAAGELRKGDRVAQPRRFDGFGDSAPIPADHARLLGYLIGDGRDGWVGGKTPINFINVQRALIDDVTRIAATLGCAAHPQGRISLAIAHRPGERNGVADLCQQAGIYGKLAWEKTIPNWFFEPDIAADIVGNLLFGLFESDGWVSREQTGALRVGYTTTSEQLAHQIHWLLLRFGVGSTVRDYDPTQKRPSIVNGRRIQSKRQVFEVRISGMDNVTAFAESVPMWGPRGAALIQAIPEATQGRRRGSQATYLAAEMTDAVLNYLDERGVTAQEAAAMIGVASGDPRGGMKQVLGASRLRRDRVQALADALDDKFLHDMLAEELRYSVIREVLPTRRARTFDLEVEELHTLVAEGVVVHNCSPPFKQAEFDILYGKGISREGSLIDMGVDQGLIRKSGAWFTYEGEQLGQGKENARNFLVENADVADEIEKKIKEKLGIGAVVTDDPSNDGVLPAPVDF

[13] = target: Beta Lactamase (Pseudomonas aeruginosa, UniProt Q932Y6); assay: BLA reporter interference, concentration series – BLA reporter cells, FRET fluorescence, artefact control for TLR9-MyD88 binding inhibitor project, dose response (AID 588341); assay type: cell-based;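 also: cell based assay in CHO-K1 cells stably expressing beta-lactamase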
Chain of Beta Lactamase (Q932Y6 whole entry): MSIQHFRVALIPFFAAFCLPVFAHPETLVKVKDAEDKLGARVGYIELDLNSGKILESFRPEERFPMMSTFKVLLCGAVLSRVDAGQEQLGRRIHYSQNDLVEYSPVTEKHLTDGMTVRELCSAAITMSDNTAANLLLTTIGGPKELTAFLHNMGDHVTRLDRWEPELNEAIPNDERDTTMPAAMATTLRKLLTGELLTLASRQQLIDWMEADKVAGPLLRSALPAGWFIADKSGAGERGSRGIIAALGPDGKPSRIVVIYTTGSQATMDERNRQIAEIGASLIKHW

[14] = system: INS1; assay: INS-1E survival protection against cytokine death – cell-based, luminescence, retest, dose response (AID 449756); assay type: functional; details: Rattus norvegicus;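 also: cell death triggered by IL-1 beta plus TNF-alpha plus IFN-gamma mixture; protective hits raise ATP signal compared with cytokine alone wells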
[15] = reduction of Shn3 3'UTR-driven luciferase in osteoblasts – cell-based, Clone20 osteoblasts, firefly luciferase, cherry-picked, dose response (AID 624132); assay type: functional;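 also: firefly luciferase luminescence from reporter carrying the Shn3 3'UTR in osteoblasts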
[16] = loss of viability in HepG2 cells – cell-based, CellTiter-Glo, cherry-picked, cytotoxicity control for Shn3 inhibitor project, dose response (AID 624134); assay type: functional
[17] = non-specific 3'UTR reporter inhibition in Clone20-Shn3RL – cell-based, Renilla luciferase, cherry-picked, counter-screen for Shn3 inhibitor project, dose response (AID 624133); assay type: functional
[18] = activation of miR-122 Renilla sensor silencing – cell-based, Huh7 psiCHECK-miR122, Renilla luciferase, cherry-picked, dose response (AID 651956); assay type: functional;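 also: huh7 hepatoma cells stably carrying a psiCHECK-2 miR-122 sensor plasmid; renilla luciferase signal reporting endogenous miR-122 activity after 48 h compound exposure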
[19] = general mammalian cell viability loss – inhibitor set, cherry-pick, set 2, cytotoxicity control for miR-122 modulator project, dose response (AID 720697); assay type: functional, cell-based
[20] = general mammalian cell viability loss – activator set, cherry-pick, cytotoxicity control for miR-122 modulator project, dose response (AID 720690); assay type: functional, cell-based;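 also: HEK293T human cells scored for general mammalian cytotoxicity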
[21] = Counterscreen for IDE inhibitors: Luminescence-based cell-based high throughput dose response assay to identify compounds that are cytotoxic to HEK cells. [Related pubchem assays: 434962 (Primary screen (IDE inhibitors in singlicate)), 449730 (Counterscreen (Cytotoxicity in triplicate)), 435028 (Confirmation (IDE inhibitors in triplicate)) …; assay type: functional; details: HEK293
[22] = target: T4, Insulin-degrading enzyme (Homo sapiens, UniProt P14735); assay: Dose Response: Fluorescence polarization-based cell-based high throughput dose response assay for inhibitors of insulin-degrading enzyme (IDE). [Related pubchem assays: 434962 (Primary screen (IDE inhibitors in singlicate)), 449730 (Counterscreen (Cytotoxicity in triplicate)), 435028 (Confirmation (IDE inhibitors in triplicate)), 434984 (Summary …; assay type: functional
T4 sequence (P14735 whole entry): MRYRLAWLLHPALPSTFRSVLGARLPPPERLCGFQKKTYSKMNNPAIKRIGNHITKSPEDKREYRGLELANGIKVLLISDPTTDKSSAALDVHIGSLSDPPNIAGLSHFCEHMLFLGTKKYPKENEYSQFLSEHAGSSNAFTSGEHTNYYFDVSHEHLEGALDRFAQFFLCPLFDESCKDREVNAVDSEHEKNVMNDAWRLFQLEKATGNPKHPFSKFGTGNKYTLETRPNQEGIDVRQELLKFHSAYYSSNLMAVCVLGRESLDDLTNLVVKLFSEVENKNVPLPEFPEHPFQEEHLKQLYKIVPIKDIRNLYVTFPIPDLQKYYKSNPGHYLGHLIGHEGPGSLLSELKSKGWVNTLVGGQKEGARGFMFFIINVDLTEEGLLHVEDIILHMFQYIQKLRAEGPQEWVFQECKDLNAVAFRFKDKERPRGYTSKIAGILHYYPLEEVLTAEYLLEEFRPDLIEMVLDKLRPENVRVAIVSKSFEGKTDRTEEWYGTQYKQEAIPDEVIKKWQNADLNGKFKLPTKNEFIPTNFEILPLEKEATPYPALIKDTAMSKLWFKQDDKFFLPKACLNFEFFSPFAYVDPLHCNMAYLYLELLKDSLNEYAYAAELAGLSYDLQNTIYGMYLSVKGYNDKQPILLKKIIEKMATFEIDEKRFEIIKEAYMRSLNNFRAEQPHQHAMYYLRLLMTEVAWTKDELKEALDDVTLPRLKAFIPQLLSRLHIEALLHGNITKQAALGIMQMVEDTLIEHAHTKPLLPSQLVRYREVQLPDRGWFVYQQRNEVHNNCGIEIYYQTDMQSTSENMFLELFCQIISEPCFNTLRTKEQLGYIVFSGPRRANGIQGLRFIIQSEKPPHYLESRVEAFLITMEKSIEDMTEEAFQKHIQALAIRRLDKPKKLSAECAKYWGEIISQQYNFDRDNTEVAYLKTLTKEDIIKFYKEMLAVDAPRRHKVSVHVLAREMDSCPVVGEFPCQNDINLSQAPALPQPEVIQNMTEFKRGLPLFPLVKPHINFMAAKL

[23] = luciferase reporter signal suppression in cells – H4 neuroglioma cells, luminescence, dose response (AID 1990); assay type: functional, cell-based
[24] = luciferase reporter signal reduction – luminescence, H4-C neuroglioblastoma cells, dose response (AID 2458); assay type: functional, cell-based;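 also: H4 neuroglioblastoma cells stably carrying a luciferase reporter gene fusion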
[25] = system: BJ; assay: BJ-TERT fibroblast viability loss – cell-based, RAS-independent, luminescence, dose response (AID 1933); assay type: functional; details: Homo sapiens
[26] = cells; assay type: functional, cell-based
[27] = Luminescence Cell-Based Dose Response HTS to Identify Inhibitors of 5'UTR Stem-Loop Driven Prion Protein mRNA Translation in H4 Neuroglioblastoma Cells. [Related pubchem assays: 1827 (Project Summary), 1813 (Primary HTS)]; assay type: functional
[28] = alpha-synuclein stem-loop luciferase translation blockers – H4 neuroglioma cells, luminescence, confirmation (AID 1988); assay type: functional, cell-based
[29] = system: BJ; assay: cells; assay type: functional, cell-based; details: Homo sapiens
[30] = system: BJ; assay: BJ-TERT-LT-ST fibroblast viability loss – cell-based, RAS-independent, luminescence, dose response (AID 1935); assay type: functional; details: Homo sapiens;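 also: BJ fibroblasts immortalized with TERT plus LT and ST oncogenes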
[31] = DRD fibroblast viability loss – cell-based, non-viral oncogenic, luminescence, dose response (AID 1934); assay type: functional; details: Homo sapiens
[32] = alpha-synuclein stem-loop translation blockers – luminescence, H4 neuroglioblastoma cells, dose confirmation, confirmation (AID 2454); assay type: functional, cell-based;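 also: H4 neuroglioblastoma cells carrying an alpha-synuclein 5'UTR luciferase reporter; potency for inhibition of the luciferase signal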
[33] = toxicity toward HEK293 cells – cell-based, dry powder samples, cytotoxicity control, dose response (AID 720567); assay type: functional

## O=C(OCn1ncc(Cl)c(Cl)c1=O)c1ccccc1Cl
[1]
  IC50: 0.401 µM (active)
[2]
  EC50: 2.57 µM (inconclusive)
[3]
  IC50: 3.15 µM (active)
[4]
  CC50: > 11 µM (not active)
[5]
  EC50: 1.99 µM (active)
[6]
  EC50: > 38 µM (not active)
[7]
  EC50: 1.04 µM (active)
[8]
  EC50: 1.07 µM (active)
[9]
  CC50: 5.38 µM (active)
[10]
  IC50: 1.64 µM (active)
[11]
  AC50: 3.32 µM (active)
[12]
  EC50: 0.669 µM (active)
[13]
  IC50: > 49.8 µM (inactive)
[14]
  AC50: 5.37 µM (active)
[15]
  AC50: 3.56 µM (active)
[16]
  AC50: 27.3 µM (active)
[17]
  AC50: 3.56 µM (active)
[18]
  AC50: 11.2 µM (active)
[19]
  AC50: 4.39 µM (active)
[20]
  AC50: 4.89 µM (active)

## Oc1sc(/C=N/c2ccc(F)cc2)c2ccccc12
[21]
  IC50: > 55.7 µM (not active)
[22]
  IC50: > 55.9 µM (not active)

## CCOc1ccc(NC(=O)c2cc(OC)nc3ccccc23)cc1
[23]
  EC50: 4.73 µM (active)
[24]
  EC50: 0.965 µM (active)
[25]
  EC50: 1.11 µM (active)
[26]
  EC50: 1.96 µM (active)
[27]
  EC50: 0.303 µM (active)
[28]
  EC50: < 0.1 µM (active)
[29]
  EC50: 69.8 µM (inconclusive)
[30]
  EC50: 1.38 µM (inconclusive)
[31]
  EC50: 0.894 µM (active)
[32]
  EC50: 1.16 µM (active)
[33]
  AC50: > 30 µM (inactive)
